Patent publication US20250066794A1, “Application of PRDX5 and GPX4 Genes in Preparation of Drugs for Castration-resistant Prostate Cancer” (Jiangnan University, priority 2023, published 2025)

What was measured:
[1] = tested on: GPX4; test: Western Blot / qRT-PCR expression of GPX4 after unmodified siGPX4; format: cell-based; conditions: unmodified siRNA; LNCaP and MyC-CaP cells (FIG. 1, FIG. 4)
Protocol: (§1) To screen for suitable siRNAs, the interference activity of the siRNAs designed in Example 1 was determined. • S1. LNCaP and MyC-CaP cells were seeded at 1×10^6 in a 10 cm cell culture dish. On the second day, the cells were attached and then treated with 50 μM enzalutamide (ENZ) for 9 days, during which the medium was replaced with a fresh drug-containing medium (1640 medium containing 50 µM ENZ) for culture every three days. The cells were collected. After the treatment for 9 days, the cells were drug-resistant (DTP cells) and were labeled as LNCaP-DTP cells and MyC-CaP-DTP cells, respectively. • S2. LNCaP, MyC-CaP, and LNCaP-DTP and MyC-CaP-DTP cells as collected in S1, were seeded in a 6 cm dish and a 10 cm dish that contain fresh complete medium (1640 medium containing 10% fetal bovine serum and 1% […]), attached, and then transfected with siPRDX5 and siGPX4 designed in Example 1, and then mRNA and protein were extracted. • S3. RNA level and protein level were determined by qRT-PCR and Western Blot assays, and siRNAs with interference activity were screened and obtained.

[2] = tested on: GPX4 gene; test: qRT-PCR relative expression of GPX4 gene after siGPX4 transfection, LNCaP and LNCaP-DTP cells; format: cell-based, human; conditions: for mRNA expression level of GPX4: LNCaP and drug-resistant LNCaP-DTP cells together; for Relative expression level of GPX4 gene: qRT-PCR; for interference activity on GPX4 gene expression (in words): drug-resistant or non-drug-resistant LNCaP cells and MyC-CaP cells
Protocol: as §1
(§2) The results are shown in FIG. 2 and FIG. 3 as well as Tables 1 and 2. Using the same method as in Example 2, LNCaP and MyC-CaP cells as well as their derived LNCaP-DTP and MyC-CaP-DTP cells were treated with the above modified siRNAs. […] It is also found to be more efficient in interfering with human cells compared to mice.

[3] = tested on: PRDX5 gene; test: qRT-PCR relative expression of PRDX5 gene after siPRDX5 transfection, LNCaP and LNCaP-DTP cells; format: cell-based, human; conditions: for mRNA expression level of PRDX5: LNCaP and drug-resistant LNCaP-DTP cells together; for Relative expression level of PRDX5 gene: qRT-PCR
Protocol: as §1, §2

[4] = tested on: LNCaP-DTP cells; test: CCK8 cell survival, LNCaP-DTP cells; format: cell-based, human
Protocol: (§3) Further, drug-resistant LNCaP-DTP and MyC-CaP-DTP cells as well as 22Rv1 cells which are themselves ENZ-resistant were transfected with the modified #3-siPRDX5-1-16 or #3-siGPX4-1-16 or #3-siPRDX5-1-16+#3-siGPX4-1-16 synthesized in Example 3 through a CCK8 method, illustrating the in vitro antitumor effects of nucleic acid drugs in drug-resistant cells.
(§4) The drug-resistant LNCaP-DTP and MyC-CaP-DTP cells as well as 22Rv1 cells which are themselves ENZ-resistant were seeded in a 96-well plate containing fresh 1640 medium and attached. Subsequently, 1 to 16 siPRDX5, siGPX4, siPRDX5+siGPX4, and negative control si-neg were added, and the transfection mixture was sucked out after successful interference. The medium was replaced with a normal complete medium (1640 medium containing 10% fetal bovine serum and 1% double antibody) and continued to be cultured in the incubator for 24 h. Finally, a CCK8 assay was performed for determination and the cell survival was calculated by OD450 value.

[5] = tested on: C-MYC (Hi-Myc)-overexpressing and spontaneous prostate cancer mouse model; test: C-MYC (Hi-Myc)-overexpressing spontaneous prostate cancer mouse model, ENZ gavage before resistance; format: in vivo
Protocol: (§5) A C-MYC (Hi-Myc)-overexpressing and spontaneous prostate cancer mouse model was constructed. mPIN/Cancer transition was developed in mice at the age of 4 months, at which time the mice were randomly grouped into NC control group (gavaged with solvent) and ENZ administration group. The ENZ administration group was given 10 mg/Kg ENZ by gavage every three days for a total of 30 days, and then some of the mice were sacrificed by cervical dislocation and their prostates were taken for photographing and weighing. […] Afterwards, the rest of the mice continued to be administrated according to the above method for 60 days. A recurrence was found in the ENZ group, and the CRPC mice were successfully obtained. Afterwards, the mice (i.e., mice at the age of 7 months) were randomly grouped into NC control group (continuously gavaged with solvent), ENZ single drug group, nucleic acid drug siPRDX5-1 group, ENZ and siPRDX5-1 co-administration group, nucleic acid drug siPRDX5-16 group, ENZ and siPRDX5-16 co-administration group, nucleic acid drug siGPX4-1 group, ENZ and siGPX4-1 co-administration group, nucleic acid drug siGPX4-16 group, ENZ and siGPX4-16 co-administration group, nucleic acid drugs siPRDX5-16+siGPX4-16 group, and ENZ and siPRDX5-16+siGPX4-16 co-administration group. The corresponding administrations were performed. […]

[6] = tested on: CRPC mice; test: Drug-resistant CRPC formed by continuous ENZ in C-MYC-overexpressing prostate cancer mice: prostate weight, HE staining; format: in vivo, mouse; conditions: CRPC mice after drug resistance and recurrence; every three days for 30 days; ENZ 10 mg/Kg gavage, siRNA 100 nM tail vein injection
Protocol: as §5

[7] = tested on: PRDX5 enzyme activity; test: PRDX5 enzyme activity in prostate tissue of CRPC mice (thioredoxin system); format: in vivo, mouse; conditions: administration for 30 days, ENZ 10 mg/Kg gavage, siRNA 100 nM tail vein injection
Protocol: A C-MYC (Hi-Myc)-overexpressing and spontaneous prostate cancer mouse model was constructed. mPIN/Cancer transition was developed in mice at the age of 4 months, at which time the mice were randomly grouped into NC control group (gavaged with solvent) and ENZ administration group. The ENZ administration group was given 10 mg/Kg ENZ by gavage every three days for a total of 30 days, and then some of the mice were sacrificed by cervical dislocation and their prostates were taken for photographing and weighing. […] Afterwards, the rest of the mice continued to be administrated according to the above method for 60 days. A recurrence was found in the ENZ group, and the CRPC mice were successfully obtained. […]
Assay for PRDX5 enzyme activity: the PRDX5 enzyme activity was determined using the thioredoxin system. Specifically, the rate of H2O2 degradation was measured by detecting the reduction of A340 caused by NADPH oxidation. […]

[8] = tested on: MyC-CaP-DTP cells; test: CCK8 cell survival, MyC-CaP-DTP cells; format: cell-based, mouse
Protocol: as §3, §4

[9] = tested on: PRDX5; test: Western Blot / qRT-PCR expression of PRDX5 after unmodified siPRDX5; format: cell-based; conditions: unmodified siRNA; LNCaP and MyC-CaP cells (FIG. 1, FIG. 4)
Protocol: as §1

Row | Compound | mRNA expression level of GPX4 [2] | Relative expression level of GPX4 gene ([2]; LNCaP cells) | Relative expression level of GPX4 gene ([2]; LNCaP-DTP cells) | mRNA expression level of PRDX5 [3] | Relative expression level of PRDX5 gene ([3]; LNCaP cells) | Relative expression level of PRDX5 gene ([3]; LNCaP-DTP cells) | also measured
1 | #4-siGPX4: unmodified double-stranded siRNA against GPX4, SEQ ID NO. 5 and SEQ ID NO. 6 (chain 1 GUGAGGCAAGACCGAAGUAAA; chain 2 UUUACUUCGGUCUUGCCUCACUG; unmodified RNA) | around 0.24 | 0.220 | 0.265 | – | – | – | expression of GPX4, including mRNA level and protein level [1]: substantially reducing the expression of GPX4; interference activity on GPX4 gene expression (in words) [2]: superior
2 | #1-siPRDX5: unmodified double-stranded siRNA against PRDX5, SEQ ID NO. 7 and SEQ ID NO. 8 (chain 1 AGACAGACUUAUUACUAGAUGAUUC; chain 2 GAAUCAUCUAGUAAUAAGUCUGUCUCC; chain 1: all phosphodiester, sugars by position and methylation of C not given here; chain 2: unmodified RNA) | – | – | – | around 0.60 | 0.605 | 0.621 | –
3 | CNC(=O)c1ccc(N2C(=S)N(c3ccc(C#N)c(C(F)(F)F)c3)C(=O)C2(C)C)cc1F [ENZ, Enzalutamide] | – | – | – | – | – | – | growth inhibition (in words) [4]: no longer has a significant inhibitory effect; recurrence on continued administration ([5]; administration continued for 60 further days): recurrence; prostate weight compared to that of the NC control group ([5]; mice aged 4 months, 10 mg/Kg ENZ by gavage every three days for 30 days): reduced by half; Mean mouse prostate weight [6]: 66.67 mg; PRDX5 enzyme activity relative to NC group [7]: 4.56; growth inhibition (in words) [8]: no longer has a significant inhibitory effect
4 | #2-siPRDX5: unmodified double-stranded siRNA against PRDX5, SEQ ID NO. 9 and SEQ ID NO. 10 (chain 1 GGCCAGAUUUCUGCAAUAAACACUU; chain 2 AAGUGUUUAUUGCAGAAAUCUGGCCAA; chain 1: all phosphodiester, sugars by position and methylation of C not given here; chain 2: unmodified RNA) | – | – | – | around 0.60 | 0.580 | 0.629 | –
5 | #3-siGPX4: unmodified double-stranded siRNA against GPX4, SEQ ID NO. 3 and SEQ ID NO. 4 (chain 1 ACAACGUCAAAUUCGAUAUGU; chain 2 ACAUAUCGAAUUUGACGUUGUAC; unmodified RNA) | around 0.21 | 0.180 | 0.245 | – | – | – | expression of GPX4, including mRNA level and protein level [1]: substantially reducing the expression of GPX4; interference activity on GPX4 gene expression (in words) [2]: superior interference activity than the #4-siGPX4
6 | #3-siPRDX5: unmodified double-stranded siRNA against PRDX5, SEQ ID NO. 1 and SEQ ID NO. 2 (chain 1 CAGACUUAUUACUAGAUGAUU; chain 2 AAUCAUCUAGUAAUAAGUCUGUC; unmodified RNA) | – | – | – | around 0.16 | 0.125 | 0.197 | expression of PRDX5, including mRNA level and protein level [9]: substantially reducing the expression of PRDX5; interference activity on PRDX5 gene expression (in words) ([3]; drug-resistant or non-drug-resistant LNCaP cells and MyC-CaP cells): superior
7 | #1-siGPX4: unmodified double-stranded siRNA against GPX4, SEQ ID NO. 11 and SEQ ID NO. 12 (chain 1 GUGAGGCAAGACCGAAGUAAACUAC; chain 2 GUAGUUUACUUCGGUCUUGCCUCACUG; unmodified RNA) | around 0.73 | 0.700 | 0.735 | – | – | – | –
8 | #2-siGPX4: unmodified double-stranded siRNA against GPX4, SEQ ID NO. 13 and SEQ ID NO. 14 (chain 1 CUACAACGUCAAAUUCGAUAUGUUC; chain 2 GAACAUAUCGAAUUUGACGUUGUAGCC; chain 1: all phosphodiester, sugars by position not given here; chain 2: RNA, phosphodiester; further chemistry not fully specified) | around 0.73 | 0.730 | 0.755 | – | – | – | –
